Source: BindingDB's records for doi:10.1016/j.bmcl.2013.05.020 (Vanderbilt University Medical Center, 2013)

Target: Metabotropic glutamate receptor 1 (Homo sapiens, UniProt Q13255)
Experiment: Negative allosteric modulation of human mGluR1 expressed in HEK293A cells assessed as inhibition of glutamate-induced calcium mobilization

Sequence of Metabotropic glutamate receptor 1 (Q13255 whole entry): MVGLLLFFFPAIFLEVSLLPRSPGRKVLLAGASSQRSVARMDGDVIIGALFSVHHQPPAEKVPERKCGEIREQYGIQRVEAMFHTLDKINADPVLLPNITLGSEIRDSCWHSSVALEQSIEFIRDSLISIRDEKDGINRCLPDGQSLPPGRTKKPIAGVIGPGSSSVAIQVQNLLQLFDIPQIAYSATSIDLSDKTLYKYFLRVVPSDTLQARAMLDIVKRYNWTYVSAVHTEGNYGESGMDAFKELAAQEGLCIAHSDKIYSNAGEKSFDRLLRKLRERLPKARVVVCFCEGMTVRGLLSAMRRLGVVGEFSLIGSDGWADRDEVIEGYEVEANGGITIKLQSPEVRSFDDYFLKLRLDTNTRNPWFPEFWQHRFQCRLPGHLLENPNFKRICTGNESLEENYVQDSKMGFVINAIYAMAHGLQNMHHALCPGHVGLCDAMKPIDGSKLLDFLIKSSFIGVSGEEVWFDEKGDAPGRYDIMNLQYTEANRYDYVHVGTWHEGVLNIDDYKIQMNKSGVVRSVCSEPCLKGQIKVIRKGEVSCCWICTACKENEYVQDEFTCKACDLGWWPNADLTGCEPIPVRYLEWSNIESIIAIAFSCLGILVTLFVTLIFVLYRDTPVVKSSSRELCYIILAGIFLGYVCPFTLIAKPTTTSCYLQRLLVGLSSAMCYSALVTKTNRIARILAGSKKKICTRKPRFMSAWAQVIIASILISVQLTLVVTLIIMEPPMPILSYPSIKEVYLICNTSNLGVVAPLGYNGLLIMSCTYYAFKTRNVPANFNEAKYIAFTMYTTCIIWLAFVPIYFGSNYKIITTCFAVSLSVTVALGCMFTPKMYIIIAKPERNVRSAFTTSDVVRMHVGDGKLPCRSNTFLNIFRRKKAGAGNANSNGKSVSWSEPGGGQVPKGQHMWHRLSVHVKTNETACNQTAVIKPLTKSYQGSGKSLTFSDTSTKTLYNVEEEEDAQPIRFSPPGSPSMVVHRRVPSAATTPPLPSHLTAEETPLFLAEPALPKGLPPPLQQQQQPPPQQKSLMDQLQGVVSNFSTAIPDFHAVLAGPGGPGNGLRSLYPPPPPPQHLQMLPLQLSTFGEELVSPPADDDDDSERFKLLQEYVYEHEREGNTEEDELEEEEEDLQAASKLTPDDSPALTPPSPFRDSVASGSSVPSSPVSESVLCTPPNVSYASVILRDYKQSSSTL

Structure (SMILES)	IC50
C[C@@H]1CN(C(=O)C23CC4CC(CC(C4)C2)C3)CCN1c1ccncc1	> 31.6 µM
C[C@@H]1CN(C(=O)C23C4C5C6C4C2C6C53)CCN1c1ccccn1 (stereo partly drawn)	> 31.6 µM
C[C@@H]1CN(C(=O)C2CCCCC2)CCN1c1ccccn1	> 31.6 µM
C[C@@H]1CN(C(=O)C2CC2)CCN1c1ccccn1	> 31.6 µM
C[C@@H]1CN(C(=O)C(C)(C)C)CCN1c1ccccn1	> 31.6 µM
C[C@@H]1CN(c2ccccn2)CCN1C(=O)C1CC1	> 31.6 µM
C[C@@H]1CN(C(=O)[C@H]2CC[C@H](C)CC2)CCN1c1ccccn1	> 31.6 µM
C[C@@H]1CN(c2ccccn2)CCN1C(=O)C(C)(C)C	> 31.6 µM
